Laboratory results reported in ChEMBL document CHEMBL1137013, “Discovery of (2R)-2-(3-{3-[(4-Methoxyphenyl)carbonyl]-2-methyl-6-(trifluoromethoxy)-1H-indol-1-yl}phenoxy)butanoic acid (MK-0533): a novel selective peroxisome proliferator-activated receptor gamma modulator for the treatment of type 2 diabetes mellitus with a reduced potential to increase plasma …” (J Med Chem, 2009).
pEC50, pIC50: −log10 of the molar value. The source made the active and inactive calls. No cut-off for these calls is given here.

Legend:
[1] = system: Liver microsomes; assay: Protein binding in human liver microsomes assessed per mg of protein; type: ADME, Microsome
[2] = system: Liver; assay: Protein binding in rat liver assessed per mg of protein; type: ADME, tissue-based
[3] = system: Plasma; assay: Protein binding in rat plasma assessed per mg of protein; type: ADME, cell-free
[4] = target: T1, Peroxisome proliferator-activated receptor delta (Homo sapiens) (UniProt Q03181); assay: Displacement of [3H2]nTZD4 from human recombinant GST-fused PPARdelta expressed in Escherichia coli at 10 uM by scintillation proximity assay
T1 sequence (whole entry): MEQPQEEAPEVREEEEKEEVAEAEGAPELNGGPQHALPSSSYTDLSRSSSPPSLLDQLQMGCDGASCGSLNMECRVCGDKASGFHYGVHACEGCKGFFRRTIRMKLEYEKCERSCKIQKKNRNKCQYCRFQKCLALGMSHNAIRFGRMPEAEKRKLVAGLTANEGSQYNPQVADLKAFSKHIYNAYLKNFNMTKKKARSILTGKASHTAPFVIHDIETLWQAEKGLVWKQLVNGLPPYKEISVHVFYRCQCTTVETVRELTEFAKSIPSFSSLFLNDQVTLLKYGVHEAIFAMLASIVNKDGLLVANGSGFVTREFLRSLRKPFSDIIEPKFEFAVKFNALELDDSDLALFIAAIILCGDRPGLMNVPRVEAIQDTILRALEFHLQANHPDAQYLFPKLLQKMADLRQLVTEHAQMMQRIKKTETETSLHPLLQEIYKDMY

[5] = target: T2, Peroxisome proliferator-activated receptor alpha (Mus musculus) (UniProt P23204); assay: Agonist activity at mouse PPARalpha at 3000 nM; type: functional
T2 sequence (whole entry): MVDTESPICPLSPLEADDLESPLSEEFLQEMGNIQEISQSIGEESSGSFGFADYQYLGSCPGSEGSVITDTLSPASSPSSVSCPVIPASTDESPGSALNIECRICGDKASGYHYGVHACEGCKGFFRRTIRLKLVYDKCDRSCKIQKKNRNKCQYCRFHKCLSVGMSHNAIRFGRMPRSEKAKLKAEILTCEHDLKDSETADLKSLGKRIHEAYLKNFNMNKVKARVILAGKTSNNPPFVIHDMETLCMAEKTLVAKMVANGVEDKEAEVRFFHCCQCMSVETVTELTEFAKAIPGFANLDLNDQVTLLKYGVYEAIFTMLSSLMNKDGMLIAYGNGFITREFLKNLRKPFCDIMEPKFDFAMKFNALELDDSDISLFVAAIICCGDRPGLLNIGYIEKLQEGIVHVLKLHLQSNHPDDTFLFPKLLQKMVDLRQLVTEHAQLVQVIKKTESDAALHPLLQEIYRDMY

[6] = target: T3, Peroxisome proliferator-activated receptor alpha (Mus musculus, UniProt P23204); assay: Agonist activity at mouse PPARalpha; type: functional; details: read-out: EC50
T3 sequence (P23204 whole entry): T2 sequence (whole entry)

[7] = Oral bioavailability in rat; type: ADME, organism-based; details: in vivo
[8] = Plasma clearance in rat; type: ADME, organism-based
[9] = Cmax in rat; type: ADME, organism-based; details: in vivo
[10] = Volume of distribution at steady state in rat; type: ADME, organism-based; details: in vivo, read-out: Vdss
[11] = Volume of distribution at steady state in dog; type: ADME, organism-based, Canis lupus familiaris; details: in vivo, read-out: Vdss
[12] = Oral bioavailability in monkey; type: ADME, organism-based, Macaca mulatta; details: rhesus monkey, in vivo
[13] = Cmax in monkey; type: ADME, organism-based, Macaca mulatta; details: rhesus monkey, in vivo
[14] = AUC in Sprague-Dawley rat at 300 mg/kg dosed daily for 2 weeks; type: ADME, organism-based; design: dose 300 mg/kg; details: plasma
[15] = system: Rattus norvegicus; assay: Antidiabetic activity in obese insulin-resistant Zucker fa/fa rat assessed as decrease in plasma triglyceride level at 3 to 150 mg/kg, po once daily for 7 days; type: functional, organism-based
[16] = system: Rattus norvegicus; assay: Antidiabetic activity in obese insulin-resistant Zucker fa/fa rat assessed as decrease in plasma insulin level at 3 to 150 mg/kg, po once daily for 7 days; type: functional, organism-based
[17] = system: Rattus norvegicus; assay: Antidiabetic activity in obese insulin-resistant Zucker fa/fa rat assessed as decrease in plasma free fatty acid level at 3 to 150 mg/kg, po once daily for 7 days; type: functional, organism-based
[18] = AUC in obese insulin-resistant Zucker fa/fa rat at 100 mg/kg, po once daily for 7 days; type: ADME, organism-based; design: dose 100 mg/kg, route oral; details: plasma
[19] = AUC in obese insulin-resistant Zucker fa/fa rat at 3 mg/kg, po once daily for 7 days; type: ADME, organism-based; design: dose 3 mg/kg, route oral; details: plasma
[20] = system: Rattus norvegicus; assay: Toxicity in obese insulin-resistant Zucker fa/fa rat assessed as increase in plasma volume at 100 mg/kg, po once daily for 7 days by Evans blue dye dilution technique; details: in vivo, 168 h
[21] = target: T4, Peroxisome proliferator-activated receptor alpha (Canis lupus familiaris) (UniProt Q95N78); assay: Agonist activity at dog PPARalpha at 3000 nM; type: functional
T4 sequence (whole entry): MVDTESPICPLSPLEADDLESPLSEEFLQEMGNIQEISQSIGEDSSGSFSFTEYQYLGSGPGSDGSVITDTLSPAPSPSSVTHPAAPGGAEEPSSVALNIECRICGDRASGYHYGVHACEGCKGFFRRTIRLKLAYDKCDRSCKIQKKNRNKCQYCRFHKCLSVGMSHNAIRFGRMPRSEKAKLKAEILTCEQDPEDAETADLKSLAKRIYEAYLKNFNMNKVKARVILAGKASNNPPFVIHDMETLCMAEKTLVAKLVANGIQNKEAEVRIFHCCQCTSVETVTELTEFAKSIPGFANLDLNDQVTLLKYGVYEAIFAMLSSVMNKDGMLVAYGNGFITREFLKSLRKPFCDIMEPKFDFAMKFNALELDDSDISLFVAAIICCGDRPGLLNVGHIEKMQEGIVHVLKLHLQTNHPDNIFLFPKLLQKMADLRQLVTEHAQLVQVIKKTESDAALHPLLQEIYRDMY

[22] = Inhibition of CYP450; type: ADME
[23] = system: Mus musculus; assay: Antihyperglycemic activity in db/db mouse assessed as plasma adiponectin level at 30 mg/kg, po administered once daily for 11 days by RIA; type: functional
[24] = target: T5, Peroxisome proliferator-activated receptor gamma (Homo sapiens, UniProt P37231)
T5 sequence (P37231 whole entry): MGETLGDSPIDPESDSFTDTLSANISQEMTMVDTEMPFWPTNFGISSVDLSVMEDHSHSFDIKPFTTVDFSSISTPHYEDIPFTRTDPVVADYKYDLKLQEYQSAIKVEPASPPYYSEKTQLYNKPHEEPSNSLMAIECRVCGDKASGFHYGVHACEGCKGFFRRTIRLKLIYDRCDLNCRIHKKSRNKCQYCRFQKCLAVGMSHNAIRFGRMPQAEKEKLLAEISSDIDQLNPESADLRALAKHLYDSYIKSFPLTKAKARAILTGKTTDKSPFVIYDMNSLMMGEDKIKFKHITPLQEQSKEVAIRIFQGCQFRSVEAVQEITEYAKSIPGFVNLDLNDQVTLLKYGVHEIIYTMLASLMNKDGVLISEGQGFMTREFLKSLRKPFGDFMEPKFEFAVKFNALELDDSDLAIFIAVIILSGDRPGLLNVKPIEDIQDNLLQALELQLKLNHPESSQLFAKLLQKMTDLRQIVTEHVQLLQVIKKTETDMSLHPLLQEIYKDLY
Description: Displacement of [3H2]nTZD3 from human recombinant GST-fused PPARgamma expressed in Escherichia coli by scintillation proximity assay

[25] = target: T5, Peroxisome proliferator-activated receptor gamma; remark: listed apart in the source
Description: Agonist activity at human recombinant PPARgamma expressed in COS1 cells co-expressing GAL4 assessed as transcriptional activity after 48 hrs by luciferase reporter gene assay

Q: With `CC[C@@H](Oc1cccc(-n2c(C)c(C(=O)c3ccc(OC)cc3)c3ccc(OC(F)(F)F)cc32)c1)C(=O)O` [MK-0533] as the compound, how does the PB [1] read?
A: The PB was < 10 pmol.

Q: And the PB [2]?
A: The PB was < 10 pmol.

Q: And the PPB [3]?
A: The PPB was < 10 pmol.

Q: And the Activity [4]?
A: The Activity was “inactive”.

Q: And the Activity [5]?
A: The Activity was 53%.

Q: What about the pEC50 [6] of the same compound?
A: Its pEC50 is 6.62.

Q: And the bioavailability [7]?
A: Its bioavailability is 81%.

Q: What about the clearance [8] of the same compound?
A: The clearance was 18.3 mL/min/kg.

Q: And the Cmax [9]?
A: Its Cmax is 1000 nM.

Q: And the Vd [10]?
A: Its Vd is 1.4 L/kg.

Q: And the Vd [11]?
A: The Vd was 1.4 L/kg.

Q: And the bioavailability [12]?
A: Its bioavailability is 25%.

Q: What about the Cmax [13] of the same compound?
A: Its Cmax is 500 nM.

Q: What about the AUC at 336 h [14] of the same compound?
A: Its AUC at 336 h is 954 µM·h.

Q: And the Activity [15]?
A: Its Activity is “Active”.

Q: And the Activity [16]?
A: The Activity was “Active”.

Q: And the Activity [17]?
A: The Activity was “Active”.

Q: What about the AUC at 168 h [18] of the same compound?
A: Its AUC at 168 h is 1480 µM·h.

Q: What about the AUC at 168 h [19] of the same compound?
A: Its AUC at 168 h is 6 µM·h.

Q: What about the Activity [20] of the same compound?
A: Its Activity is “Toxic”.

Q: And the Activity [21]?
A: The Activity was 35%.

Q: What about the INH [22] of the same compound?
A: The INH was > 10 µM.

Q: And the Activity [23]?
A: Its Activity is 48.1 µg/mL.

Q: What about the pIC50 [24] of the same compound?
A: Its pIC50 is 8.05.

Q: And the pEC50 [25]?
A: Its pEC50 is 8.70.
